Test results: patent publication US9657006B2, “Macrocyclic factor VIIa inhibitors” (BRISTOL-MYERS SQUIBB COMPANY, priority 2013, dated 2017)
Counter-ions that a name gives are not always drawn. Like-named read-outs stand apart in the source and are kept apart here. One block for each compound: values may come before it.

Key:
[1] = amide bond, 15-membered ring, HATU/NMM, DMF, 25.0 °C, 12.0 h
[2] = from CNCc1cc(NC(=O)COCc2cccc(C(Nc3ccc4c(N(C(=O)OC(C)(C)C)C(=O)OC(C)(C)C)ncc(F)c4c3)C(=O)O)c2)ccc1S(=O)(=O)C1CC1; amide bond; 15-membered ring; BOP/DMAP/DIPEA; DCM/DMF; 20.7 mM; 25.0 °C; 13.0 h; 2 steps
[3] = target: T1, FVIIa (Homo sapiens, UniProt P08709); experiment: FVIIa-Xase Ki (37° C.); assay type: biochemical
T1 construct: with about 1% of the total amount in the proteolytically active form factor VIIa
T1 sequence (P08709 213-466 limits assumed): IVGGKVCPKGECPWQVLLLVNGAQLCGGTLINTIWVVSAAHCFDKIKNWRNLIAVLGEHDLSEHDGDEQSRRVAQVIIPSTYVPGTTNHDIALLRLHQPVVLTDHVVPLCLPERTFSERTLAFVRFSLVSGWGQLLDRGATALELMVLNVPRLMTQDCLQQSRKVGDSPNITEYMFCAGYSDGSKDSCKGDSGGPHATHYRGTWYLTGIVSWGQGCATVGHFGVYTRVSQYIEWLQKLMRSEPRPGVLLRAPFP
T1 sequence (P08709 61-212 limits assumed): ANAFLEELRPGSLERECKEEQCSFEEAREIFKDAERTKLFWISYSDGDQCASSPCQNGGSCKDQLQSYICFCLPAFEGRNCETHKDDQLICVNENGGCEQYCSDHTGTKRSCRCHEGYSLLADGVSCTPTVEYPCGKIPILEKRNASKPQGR
T1 sequence (P13726 33-295 partner): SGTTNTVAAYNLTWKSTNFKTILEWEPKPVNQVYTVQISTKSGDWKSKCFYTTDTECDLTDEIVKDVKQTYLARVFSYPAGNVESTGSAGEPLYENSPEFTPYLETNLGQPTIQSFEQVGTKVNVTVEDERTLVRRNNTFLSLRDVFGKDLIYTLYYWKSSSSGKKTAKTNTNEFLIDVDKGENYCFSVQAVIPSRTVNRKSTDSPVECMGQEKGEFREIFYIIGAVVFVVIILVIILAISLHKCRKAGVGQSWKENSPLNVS
Experimental: The effectiveness of compounds of the present invention as inhibitors of the coagulation Factors, VIIa, IXa, Xa, XIa, XIIa, plasma kallikrein or thrombin, tissue kallikrein and activated protein C, can be determined using a relevant purified serine protease, respectively, and an appropriate synthetic substrate. The rate of hydrolysis of the chromogenic or fluorogenic substrate by the relevant serine protease was measured both in the absence and presence of compounds of the present invention. […] A decrease in the rate of absorbance or fluorescence change in the presence of inhibitor is indicative of enzyme inhibition. Such methods are known to one skilled in the art. The results of this assay are expressed as the inhibitory constant, Ki.
Reactions were initiated by the addition of human FX (range of concentrations). […] The residual FVIIa is sufficient, when combined with PCPS, calcium and TF to catalyze the conversion of FX to Xa, and was increased by the addition of 5 pM human FVIIa. FXa in turn hydrolyses S2765, which was monitored for 60 min at 405 nm. FXase activity was derived from the parabolic change in absorbance over time according to Equation 2: Absorbance=½ at 2+bt+c (Eq. 2) where a is proportional to the rate of FX activation≡product≡vs; b is proportional to the hydrolysis of S2765 in the absence of FXa; c is the absorbance at t=0. […]

SMILES: CN1CCc2cccc(c2)C(Nc2ccc3c(N(C(=O)OC(C)(C)C)C(=O)OC(C)(C)C)nccc3c2)C(=O)N(C)Cc2cc(ccc2S(=O)(=O)C2CC2)NC1=O (centres unmarked)
ring closure, yield after HPLC ([1]; from CNCc1cc(NC(=O)N(C)CCc2cccc(C(Nc3ccc4c(N(C(=O)OC(C)(C)C)C(=O)OC(C)(C)C)nccc4c3)C(=O)O)c2)ccc1S(=O)(=O)C1CC1): 61%

SMILES: CN1Cc2cc(ccc2S(=O)(=O)C2CC2)NC(=O)COCc2cccc(c2)C(Nc2ccc3c(N(C(=O)OC(C)(C)C)C(=O)OC(C)(C)C)ncc(F)c3c2)C1=O (centres unmarked)
ring closure, crude yield [2]: 48%

SMILES: COc1ccc2cc1[C@H](C)CN(C)C(=O)Nc1ccc(S(=O)(=O)C3CC3)c(c1)CN(C)C(=O)C2Nc1ccc2c(N(C(=O)OC(C)(C)C)C(=O)OC(C)(C)C)nccc2c1 (some centres unmarked)
ring closure, yield after HPLC ([1]; from CNCc1cc(NC(=O)N(C)C[C@@H](C)c2cc(C(Nc3ccc4c(N(C(=O)OC(C)(C)C)C(=O)OC(C)(C)C)nccc4c3)C(=O)O)ccc2OC)ccc1S(=O)(=O)C1CC1, 1.11 mM): 11%

Ki [3]: 92 nM
SMILES: CN1Cc2cc(ccc2S(=O)(=O)C2CC2)NC(=O)CCc2cc(ccc2O)[C@@H](Nc2ccc3c(N)ncc(F)c3c2)C1=O (single isomer, unassigned) [Example 16]

Ki [3]: 6 nM
SMILES: CN1CCc2cccc(c2)C(Nc2ccc3c(N)nccc3c2)C(=O)N(C)Cc2cc(ccc2S(=O)(=O)C2CC2)NC1=O (centres unmarked) [Example 13, trifluoroacetic acid salt]
